Test results from ChEMBL document CHEMBL5030562, “Synthesis and antiviral evaluation of cytisine derivatives against dengue virus types 1 and 2” (Bioorg Med Chem Lett, 2021).
Activity calls are given as the source filed them. The rule behind the calls is not given here.

Tests used:
dengue virus type 1 [1] = experiment: Antiviral activity against DENV1 infected in African green monkey Vero E6 cells assessed as inhibition of virus induced cytopathic effect measured after 96 hrs by immunofluorescent staining based inverted microscopic analysis; type: functional, organism-based; settings: Vero C1008, 96 h
A549 = experiment: Cytotoxicity against human A549 cells assessed as reduction in cell viability by MTT assay; type: functional
dengue virus type 2 [2] = experiment: Antiviral activity against DENV2 infected in human A549 cells assessed as inhibition of virus induced cytopathic effect measured after 96 hrs by immunofluorescent staining based inverted microscopic analysis; type: functional, organism-based; settings: A549, 96 h
dengue virus type 2 [3] = experiment: Antiviral activity against Dengue virus 2 infected in African green monkey Vero E6 cells assessed as inhibition of viral replication at entry stage measured after 96 hrs by DAPI staining based fluorescence microscopic analysis; type: functional, organism-based; settings: Vero C1008, 96 h
dengue virus type 1 [4] = experiment: Antiviral activity against DENV1 infected in African green monkey Vero E6 cell assessed as inhibition of virus induced cytopathic effect at 10 uM measured after 96 hrs by immunofluorescent staining based inverted microscopic analysis relative to control; type: functional; settings: Vero C1008
[5] = Cytotoxicity against African green monkey Vero E6 cells assessed as reduction in cell viability by MTT assay; type: cell-based, Vero C1008; settings: chlorocebus sabaeus
Human respirovirus 3 = experiment: Antiviral activity against Parainfluenza virus type 3; type: functional, organism-based
Hepatitis B virus = experiment: Antiviral activity against Hepatitis B virus; type: functional, organism-based
dengue virus type 1 [6] = experiment: Antiviral activity against DENV1 infected in African green monkey Vero E6 cells assessed as reduction in induced cytopathic effect at 10 uM after 96 hrs by immunofluorescent staining based inverted microscopic analysis; type: functional, organism-based
[7] = Selectivity index, ratio of CC50 for cytotoxicity in African green monkey Vero E6 cells to IC50 for Antiviral activity against DENV2 infected in African green monkey Vero E6 cells; type: toxicity, cell-based, Vero C1008; settings: read-out: Ratio CC50/IC50
[8] = Selectivity index, ratio of CC50 for cytotoxicity in human A549 cells to IC50 for Antiviral activity against DENV2 infected in African green monkey Vero E6 cells; type: toxicity, cell-based
dengue virus type 2 [9] = experiment: Antiviral activity against Dengue virus 2 infected in African green monkey Vero E6 cells assessed as inhibition of viral replication at attachment stage measured after 96 hrs by DAPI staining based fluorescence microscopic analysis; type: functional, organism-based; settings: Vero C1008, 96 h
Influenza A virus = experiment: Antiviral activity against Influenza A virus; type: functional, organism-based
dengue virus type 2 [10] = experiment: Antiviral activity against DENV2 infected in African green monkey Vero E6 cells assessed as reduction in induced cytopathic effect at 10 uM after 96 hrs by immunofluorescent staining based inverted microscopic analysis; type: functional, organism-based
dengue virus type 1 [11] = experiment: Selectivity index, ratio of CC50 for cytotoxicity in African green monkey Vero E6 cells to IC50 for Antiviral activity against DENV1 infected in African green monkey Vero E6 cells; type: functional, Vero C1008
dengue virus type 2 [12] = experiment: Antiviral activity against DENV2 infected in African green monkey Vero E6 cells assessed as inhibition of virus induced cytopathic effect at 10 uM measured after 96 hrs by immunofluorescent staining based inverted microscopic analysis relative to control; type: functional; settings: Vero C1008
dengue virus type 2 [13] = experiment: Antiviral activity against Dengue virus 2 infected in African green monkey Vero E6 cells assessed as inhibition of viral replication at post entry stage measured after 96 hrs by DAPI staining based fluorescence microscopic analysis; type: functional, organism-based; settings: Vero C1008, 96 h
dengue virus type 2 [14] = experiment: Antiviral activity against DENV2 infected in African green monkey Vero E6 cells assessed as inhibition of virus induced cytopathic effect measured after 96 hrs by immunofluorescent staining based inverted microscopic analysis; type: functional, organism-based; settings: Vero C1008, 96 h

SMILES | IC50 (dengue virus type 1 [1]) | CC50 (A549) | IC50 (dengue virus type 2 [2]) | IC50 (dengue virus type 2 [3]) | inhibition at 10 µM (dengue virus type 1 [4]) | CC50 [5] | IC50 (Human respirovirus 3) | IC50 (Hepatitis B virus) | Activity (dengue virus type 1 [6]) | selectivity ratio [7] | selectivity ratio [8] | IC50 (dengue virus type 2 [9]) | IC50 (Influenza A virus) | Activity (dengue virus type 2 [10]) | Ratio CC50/IC50 (dengue virus type 1 [11]) | inhibition at 10 µM (dengue virus type 2 [12]) | IC50 (dengue virus type 2 [13]) | IC50 (dengue virus type 2 [14])
CN1C[C@H]2C[C@@H](C1)c1ccc([N+](=O)[O-])c(=O)n1C2 | 2.4 µM | > 50 µM | 0.77 µM | 1.13 µM | 61.2% | > 50 µM | > 3 µM | > 3 µM | Active | > 500 | > 64.9 | 0.837 µM | > 3 µM | Active | >20.8 | 76.7% | 1.37 µM | –
CC(C)NC(=O)Nc1ccc2n(c1=O)C[C@@H]1C[C@H]2CN(C)C1 (single isomer, unassigned) | – | > 50 µM | – | – | – | > 50 µM | – | – | – | – | – | – | – | Active | – | 19.7% | – | –
CN1C[C@H]2C[C@@H](C1)c1ccc(NC/C=C/c3ccccc3)c(=O)n1C2 | – | > 50 µM | – | – | – | > 50 µM | – | – | – | – | – | – | – | Active | – | 3.2% | – | –
CCOC(=O)CNC(=O)Nc1ccc2n(c1=O)C[C@@H]1C[C@H]2CN(C)C1 (single isomer, unassigned) | – | > 50 µM | – | – | – | > 50 µM | – | – | – | – | – | – | – | Active | – | 40.3% | – | –
CCOC(=O)CNC(=S)Nc1ccc2n(c1=O)C[C@@H]1C[C@H]2CN(C)C1 | – | > 50 µM | – | – | – | > 50 µM | – | – | – | – | – | – | – | Active | – | 60.9% | – | –
Cn1cc(CNc2ccc3n(c2=O)C[C@@H]2C[C@H]3CN3CCCCC23)c(=O)n(C)c1=O (stereo partly specified) | – | > 50 µM | – | – | – | > 50 µM | – | – | – | – | – | – | – | Active | – | 53.3% | – | –
O=c1ccc(Cl)c2n1C[C@@H]1C[C@H]2CN(C(=S)Nc2ccccc2)C1 | – | > 50 µM | – | – | – | > 50 µM | – | – | – | – | – | – | – | Active | – | 11.2% | – | –
C=CCNC(=S)N1C[C@H]2C[C@@H](C1)c1cccc(=O)n1C2 | 0.14 µM | > 50 µM | < 0.1 µM | < 0.1 µM | 81.2% | > 50 µM | > 3 µM | > 3 µM | Active | > 500 | > 500 | 0.315 µM | > 3 µM | Active | >357.1 | 86.4% | 7.51 µM | < 0.1 µM
CC(C)NC(=S)Nc1ccc2n(c1=O)C[C@@H]1CC2CN(C)C1 (single isomer, unassigned) | – | > 50 µM | – | – | – | > 50 µM | – | – | – | – | – | – | – | Active | – | 61.4% | – | –
CN1C[C@H]2C[C@@H](C1)c1ccc(NCc3ccc(O)cc3)c(=O)n1C2 | 0.97 µM | > 50 µM | 0.78 µM | 0.471 µM | 64.8% | > 50 µM | > 3 µM | > 3 µM | Active | > 21.7 | > 64.1 | > 10 µM | > 3 µM | Active | >51.5 | 70.6% | < 0.1 µM | 2.3 µM
Cn1cc(CNc2ccc3n(c2=O)C[C@@H]2C[C@H]3CN(C(=O)Nc3ccccc3)C2)c(=O)n(C)c1=O | 0.49 µM | > 50 µM | 0.47 µM | 0.844 µM | 57.7% | > 50 µM | > 3 µM | > 3 µM | Active | > 500 | > 106 | 6.45 µM | > 3 µM | Active | >102 | 74% | < 0.1 µM | < 0.1 µM
CN1C[C@H]2C[C@@H](C1)c1ccc(NCc3ccccc3O)c(=O)n1C2 | – | > 50 µM | – | – | – | > 50 µM | – | – | – | – | – | – | – | Active | – | 39% | – | –
COC(=O)CN1C[C@H]2C[C@@H](C1)c1ccc(NCc3cn(C)c(=O)n(C)c3=O)c(=O)n1C2 | – | > 50 µM | – | – | – | > 50 µM | – | – | – | – | – | – | – | Active | – | 63.9% | – | –
C=CCN1C[C@H]2C[C@@H](C1)c1ccc(NCc3cn(C)c(=O)n(C)c3=O)c(=O)n1C2 | – | > 50 µM | – | – | – | > 50 µM | – | – | – | – | – | – | – | Active | – | 43.3% | – | –
CN1C[C@H]2C[C@@H](C1)c1ccc(NCc3cn(C)c(=O)n(C)c3=O)c(=O)n1C2 (single isomer, unassigned) | 1.38 µM | > 50 µM | 0.66 µM | 1.84 µM | 73.9% | > 50 µM | > 3 µM | > 3 µM | Active | > 109 | > 75.8 | 9.3 µM | > 3 µM | Active | >36.2 | 79.2% | 0.237 µM | < 0.1 µM
O=c1cccc2n1C[C@@H]1C[C@H]2CN(C(=S)Nc2ccccc2)C1 | – | > 50 µM | – | – | – | > 50 µM | – | – | – | – | – | – | – | Active | – | 59.4% | – | –
C=CCNC(=S)N1C[C@H]2C[C@@H](C1)c1ccc([N+](=O)[O-])c(=O)n1C2 | – | > 50 µM | – | – | – | > 50 µM | – | – | – | – | – | – | – | Active | – | 48.9% | – | –
Cn1cc(CNc2ccc3n(c2=O)C[C@@H]2C[C@H]3CN(Cc3ccccc3)C2)c(=O)n(C)c1=O (single isomer, unassigned) | – | > 50 µM | – | – | – | > 50 µM | – | – | – | – | – | – | – | Active | – | 58.8% | – | –
